Assay results from article PMC5070805 (Journal of medicinal chemistry, 2015).
Where a SMILES comes first, the peptide text is derived from it. Bridges are numbered along the chain shown (N, C = ends). [ ]: non-standard residue; d: D form. Nle = CCCC[C@H](N)C(=O)O

Legend:
hMC1R [1] = molecular target: T1, hMC1R (Homo sapiens, UniProt Q01726); assay: Competition binding vs 125I-[Nle4,DPhe7]-α-MSH on whole HEK293 cells; details: text description
hMC3R [2] = molecular target: T2, hMC3R (Homo sapiens, UniProt P41968); assay: as above; details: text description
T2 sequence (P41968 whole entry): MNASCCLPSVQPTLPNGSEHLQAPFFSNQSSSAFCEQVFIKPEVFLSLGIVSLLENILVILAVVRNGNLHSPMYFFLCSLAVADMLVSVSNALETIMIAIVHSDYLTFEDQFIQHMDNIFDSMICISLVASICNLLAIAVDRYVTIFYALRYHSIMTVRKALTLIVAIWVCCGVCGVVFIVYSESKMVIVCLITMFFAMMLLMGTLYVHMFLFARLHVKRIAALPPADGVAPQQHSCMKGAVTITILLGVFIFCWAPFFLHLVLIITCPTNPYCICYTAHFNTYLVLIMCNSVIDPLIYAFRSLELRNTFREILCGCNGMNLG

hMC4R [3] = molecular target: T3, hMC4R (Homo sapiens, UniProt P32245); assay: as above; details: text description
T3 sequence (P32245 whole entry): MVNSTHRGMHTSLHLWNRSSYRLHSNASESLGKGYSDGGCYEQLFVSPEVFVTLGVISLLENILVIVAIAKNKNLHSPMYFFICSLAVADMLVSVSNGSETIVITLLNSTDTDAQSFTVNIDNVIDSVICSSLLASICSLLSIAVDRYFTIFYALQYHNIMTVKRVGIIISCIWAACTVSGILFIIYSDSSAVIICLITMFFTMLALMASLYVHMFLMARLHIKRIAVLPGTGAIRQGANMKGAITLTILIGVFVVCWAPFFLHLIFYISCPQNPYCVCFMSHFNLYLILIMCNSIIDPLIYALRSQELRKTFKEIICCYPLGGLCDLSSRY

hMC5R [4] = molecular target: T4, hMC5R (Homo sapiens, UniProt P33032); assay: as above; details: text description
T4 sequence (P33032 whole entry): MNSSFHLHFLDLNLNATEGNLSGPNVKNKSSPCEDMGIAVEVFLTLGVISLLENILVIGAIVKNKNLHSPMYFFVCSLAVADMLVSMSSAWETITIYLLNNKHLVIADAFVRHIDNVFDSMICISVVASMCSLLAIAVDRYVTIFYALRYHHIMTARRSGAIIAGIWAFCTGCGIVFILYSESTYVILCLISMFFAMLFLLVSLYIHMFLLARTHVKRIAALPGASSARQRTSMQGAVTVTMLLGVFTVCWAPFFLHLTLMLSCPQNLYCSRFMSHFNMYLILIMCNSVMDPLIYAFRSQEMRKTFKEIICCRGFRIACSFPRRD

hMC1R [5] = molecular target: T1, hMC1R; assay: Adenylate cyclase assay; format: cell-based; details: cAMP, text description
hMC3R [6] = molecular target: T2, hMC3R; assay: Adenylate cyclase assay; format: cell-based; details: cAMP, text description
hMC4R [7] = molecular target: T3, hMC4R; assay: Adenylate cyclase assay; format: cell-based; details: cAMP, text description
hMC5R [8] = molecular target: T4, hMC5R; assay: Adenylate cyclase assay; format: cell-based; details: cAMP, text description

T1 sequence (Q01726 whole entry): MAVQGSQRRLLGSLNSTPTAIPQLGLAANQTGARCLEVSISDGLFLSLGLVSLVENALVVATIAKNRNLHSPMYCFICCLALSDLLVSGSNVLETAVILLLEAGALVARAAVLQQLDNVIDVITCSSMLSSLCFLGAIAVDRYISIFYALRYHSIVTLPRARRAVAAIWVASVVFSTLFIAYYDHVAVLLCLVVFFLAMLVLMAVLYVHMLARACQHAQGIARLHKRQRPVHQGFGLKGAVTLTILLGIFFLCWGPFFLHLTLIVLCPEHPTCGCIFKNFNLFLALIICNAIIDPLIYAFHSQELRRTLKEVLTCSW

SMILES: CCCC[C@H](NC(C)=O)C(=O)N[C@H]1CC(=O)NCCCC[C@@H](C(N)=O)NC(=O)[C@H](Cc2c[nH]c3ccccc23)NC(=O)[C@H](CCCNC(=N)N)NC(=O)[C@@H](Cc2ccccc2)NC(=O)[C@@H]2CCCN2C(=O)[C@@H]2CCCN2C1=O [compound 1, Ac-Nle-c[D-P-P-DPhe-R-W-K]-NH2] (Ac-[Nle]DPP[dF]RWK-NH2; lactam 2-8)
- binding at hMC1R (in words) (hMC1R [1]): no appreciable binding
- binding at hMC3R (in words) (hMC3R [2]): low binding affinity
- binding at hMC4R (in words) (hMC4R [3]): low binding affinity
- binding at hMC5R (in words) (hMC5R [4]): no appreciable binding
- functional activity at hMC1R (in words) (hMC1R [5]): low potency
- functional activity at hMC3R (in words) (hMC3R [6]): undetectable activity
- functional activity at hMC4R (in words) (hMC4R [7]): undetectable activity
- functional activity at hMC5R (in words) (hMC5R [8]): undetectable activity

SMILES: CCCC[C@H](NC(C)=O)C(=O)N[C@H]1CC(=O)NCCCC[C@@H](C(N)=O)NC(=O)[C@H](Cc2c[nH]c3ccccc23)NC(=O)[C@H](CCCNC(=N)N)NC(=O)[C@@H](Cc2ccccc2)NC(=O)[C@@H]2CCCN2C(=O)[C@H](Cc2c[nH]c3ccccc23)NC1=O [compound 3, Ac-Nle-c[D-W-P-DPhe-R-W-K]-NH2]
- binding at hMC1R (in words) (hMC1R [1]): no affinity
- binding at hMC3R (in words) (hMC3R [2]): weak binding
- binding at hMC4R (in words) (hMC4R [3]): no affinity
- binding at hMC5R (in words) (hMC5R [4]): no affinity
- functional activity at hMC1R (in words) (hMC1R [5]): weak and moderate activation
- functional activity at hMC3R (in words) (hMC3R [6]): no stimulation of cAMP accumulation
- functional activity at hMC4R (in words) (hMC4R [7]): weak and moderate activation
- functional activity at hMC5R (in words) (hMC5R [8]): weak and moderate activation
